According to publication PMC7417771, “Thiol-ene Enabled Chemical Synthesis of Truncated S-Lipidated Teixobactin Analogs” (Frontiers in Chemistry, 2020):
≈ marks a conversion by molar mass, not a printed value. Read-outs that look alike come from different tables or passages of the source. Positions of bridges follow the written chain, without caps; N, C: chain ends. Non-standard residues stand in square brackets, D forms with d. Residues, ends and D or L forms follow the SMILES beside them. *: point of attachment. Ethyl(2-palmitoyloxy) = CCCCCCCCCCCCCCCC(=O)OCC*; Ethyl(2-butanoyloxy) = CCCC(=O)OCC*; Ethyl(2-OBz) = O=C(OCC*)c1ccccc1; Lauroyl = CCCCCCCCCCCC(=O)*; X1 = CCCCCCCCCCCC(=O)OCC*; X3 = CCCCCCCC(=O)OCC*; X2 = CCCCCC(=O)OCC*; Mpa = O=C(O)CCS

Key:
[1] = test system: S. epidermidis ATCC 14990; settings: cited from earlier work; for MIC (S. epidermidis): Figure 1, ref Yang H. et al. (2016), Girt et al. (2018), Zong et al. (2018)
Procedure: Figure 1 Structures of teixobactin 1 and teixobactin analogs; Arg^10-teixobactin 2, lipobactin 3, and Lys^10-farnesylbactin 4. Examples of most relevant MICs from the literature are shown above each structure. Yang H. et al. ([2016]), Girt et al. ([2018]), Zong et al. ([2018]) The End^10, Arg^10 and Lys^10 substitutions (red) and the lipid moieties of lipobactin 3 and farnesylbactin 4 (blue) are highlighted. […] Lipobactin 3 was prepared using Fmoc-SPPS as described by the Nowick group (Yang H. et al., [2016]) and purified to 95% (Yang H. et al., [2016]). […] Despite the distinct similarity to lipobactin 3, in which hydrophobic residues 1–5 of teixobactin are also replaced with ...

[2] = Analytical RP-HPLC retention time as measure of hydrophobicity; format: physicochemical; settings: for RP-HPLC column retention time tR: chromatographic, analytical RP-HPLC, Waters Xterra MS C18 5 μm 4.6 × 150 mm, buffer A 0.1% TFA in H2O, buffer B 0.1% TFA in MeCN, used as measure of hydrophobicity; for Δt, retention time difference to lipobactin 3: tR of the compound minus tR of 3, same RP-HPLC C18 system; for Hydrophobicity relative to lipobactin 3 as judged by RP-HPLC retention time: in words
Procedure: We evaluated the antibiotic activity of the analogs 8a–8f against S. aureus using lipobactin 3 as a reference compound. Lipobactin 3 was prepared using Fmoc-SPPS as described by the Nowick group (Yang H. et al., [2016]) and purified to 95% (Yang H. et al., [2016]). […] To examine the reasons for the lack of bioactivity, the hydrophobicity of the S-lipidated teixobactin analogs as a function of lipid tail length were examined by analyses of their RP-HPLC retention times and compared to that of lipobactin 3 (Table 1).
(§1) Microwave irradiated reactions were performed in a CEM (Matthews, NC) Discover SP, Model 908010 reactor. Dibenzofulvene measurements for the Fmoc release assay was performed in a Shimadzu (Kyoto, Japan) UV-1280 spectrophotometer at 290 nm. Analytical RP-HPLC was used to analyse final compounds and performed on a Dionex (Sunnyvale, CA) UltiMate 3000 system using a Waters (Milford, MA) Xterra MS C18 (5 μm 4.6 × 150 mm) column, and Chromeleon software was used for data processing. Buffer A: 0.1% (v/v) TFA in H2O; buffer B: 0.1% (v/v) TFA in MeCN. LC-MS was performed on an Agilent (Santa Clara, CA) 1260 Infinity with UV absorbance at λ = 214 nm equipped with an Agilent 6120 Quadrupole LC-MS using an Agilent Zorbax 300SB-C3 column (3.5 μm, 3.0 × 150 mm) column with a linear gradient of 5 – 95% B (ca. 3% B/min) at r.t., with a flow rate of 0.3 mL/min. Data processing was carried out by Agilent OpenLAB software. Buffer A: 0.1% (v/v) formic acid in H2O; buffer B: 0.1% (v/v) formic acid in MeCN. Crude peptides were purified on Dionex UltiMate 3000 preparative HPLC using Agilent Zorbax 300SB-C18 column (5 μm, 9.4 × 250 mm) and Chromeleon software was used for data processing. Ultraviolet irradiation was carried out using Spectroline (Westbury, NY) hand-held lamp EA-160/FA, 6W integrally filtered tube at 50 Hz, 0.17 A and λ = 365 nm. Biological assays were carried out inside a Thermo Fisher (Waltham, MA) HERAsafe KSP 12 biological safety cabinet on 96-well plates obtained from MediRay (Auckland, New Zealand). Mueller Hinton (MH) broth and Staphylococcus aureus ATCC 29213 was obtained from Thermo Fisher. Media and bacteria were incubated in N-Biotek (Geyonggi, South Korea) NB205L shaker.

[3] = test system: Gram-positive bacterial species; settings: range over species, ref Yang H. et al., 2016, cited from earlier work
Procedure: Despite this substitution, the L-Arg^10-teixobactin analog maintained excellent, albeit reduced potency, with MIC values ranging 1–4 μg/mL across a number of Gram-positive bacterial species (Yang H. et al., [2016]; Zong et al., [2018]). The rationale for this substitution being that the positive charge from the guanidinium group was the moiety responsible for eliciting antibacterial activity.

[4] = test system: Staphylococcus aureus ATCC 29213; format: cell-based
Procedure: as §1
Staphylococcus aureus ATCC 29213 was grown in non-cation adjusted Mueller Hinton (MH) broth at 37 °C with shaking (200 rpm). […] Overnight cultures of bacteria were diluted in fresh MH before adding 50 µL of inoculum to each well of the MIC plate, to achieve a final volume of 100 µL with a uniform CFU/ml of ~5 x10^5 in each well. Plates were incubated at 37 °C with shaking for 24 h before determining the MIC.

[5] = test system: methicillin-resistant Staphylococcus aureus (MRSA); settings: cited from earlier work
Excerpt: Nature has historically been the primary source of medicinally important antibiotics (Moloney, [2016]). By screening soil microorganisms, Ling et al. discovered the novel antimicrobial peptide (AMP) teixobactin (1, Figure 1), isolated from bacterium Eleftheria terrae (Ling et al., [2015]). […] Crucially, resistance in S. aureus was not induced by exposure to sub-lethal doses of teixobactin. The lack of resistance wa ... || Figure 1 Structures of teixobactin 1 and teixobactin analogs; Arg^10-teixobactin 2, lipobactin 3, and Lys^10-farnesylbactin 4. Examples of most relevant MICs from the literature are shown above each structure. Yang H. et al. ([2016]), Girt et al. ([2018]), Zong et al. ([2018]) The End^10, Arg^10 and Lys^10 substitutions (red) and the lipid moieties of lipobactin 3 and farnesylbactin 4 (blue) are highlighted.

[6] = Figure 1, ref Yang H. et al. (2016), Girt et al. (2018), Zong et al. (2018)

CCCCCCCCCCCC(=O)N[C@H](C(=O)N[C@@H](CO)C(=O)N[C@H]1C(=O)N[C@@H](C)C(=O)N[C@@H](CCCNC(=N)N)C(=O)N[C@@H]([C@@H](C)CC)C(=O)O[C@H]1C)[C@@H](C)CC [Compound 3, lipobactin, reference compound] (Lauroyl-IS[dT]ARI; ester 3-C)
MIC (S. epidermidis) [1]: 4 µg/mL (≈ 4.85 µM)
MIC against S. epidermidis ATCC 14990 ([1]; reported MIC, ref Yang H. et al., 2016): 4 µg/mL (≈ 4.85 µM)
RP-HPLC column retention time tR [2]: 20.38 min
Δt, retention time difference to lipobactin 3 [2]: 0 min
MIC across a range of Gram-positive bacterial species [3]: 4 to 8 µg/mL
MIC, S. aureus ATCC 29213 ([4]; ATCC 29213, 24 h): 8 µM (≈ 6.59 µg/mL)
MIC, S. aureus ATCC 29213, converted to mass concentration ([4]; ATCC 29213, 24 h): ca. 6.5 μg/mL

CCCC(=O)OCCSCCC(=O)N[C@H](C(=O)N[C@@H](CO)C(=O)N[C@H]1C(=O)N[C@@H](C)C(=O)N[C@@H](CCCNC(=N)N)C(=O)N[C@@H]([C@@H](C)CC)C(=O)O[C@H]1C)[C@@H](C)CC [Compound 8a] ([Mpa](Ethyl(2-butanoyloxy))IS[dT]ARI; ester 4-C)
RP-HPLC column retention time tR [2]: 14.98 min
Hydrophobicity relative to lipobactin 3 as judged by RP-HPLC retention time [2]: more hydrophilic than 3
Δt, retention time difference to lipobactin 3 [2]: -5.4 min
MIC, S. aureus ATCC 29213 ([4]; ATCC 29213, 24 h): > 128 µM

CCCCCC(=O)OCCSCCC(=O)N[C@H](C(=O)N[C@@H](CO)C(=O)N[C@H]1C(=O)N[C@@H](C)C(=O)N[C@@H](CCCNC(=N)N)C(=O)N[C@@H]([C@@H](C)CC)C(=O)O[C@H]1C)[C@@H](C)CC [Compound 8b] ([Mpa](X2)IS[dT]ARI; ester 4-C)
RP-HPLC column retention time tR [2]: 16.88 min
Hydrophobicity relative to lipobactin 3 as judged by RP-HPLC retention time [2]: more hydrophilic than 3
Δt, retention time difference to lipobactin 3 [2]: -3.5 min
MIC, S. aureus ATCC 29213 ([4]; ATCC 29213, 24 h): > 128 µM

CCCCCCCC(=O)OCCSCCC(=O)N[C@H](C(=O)N[C@@H](CO)C(=O)N[C@H]1C(=O)N[C@@H](C)C(=O)N[C@@H](CCCNC(=N)N)C(=O)N[C@@H]([C@@H](C)CC)C(=O)O[C@H]1C)[C@@H](C)CC [Compound 8c] ([Mpa](X3)IS[dT]ARI; ester 4-C)
RP-HPLC column retention time tR [2]: 18.89 min
Δt, retention time difference to lipobactin 3 [2]: -1.5 min
MIC, S. aureus ATCC 29213 ([4]; ATCC 29213, 24 h): > 128 µM

CCCCCCCCCCCC(=O)OCCSCCC(=O)N[C@H](C(=O)N[C@@H](CO)C(=O)N[C@H]1C(=O)N[C@@H](C)C(=O)N[C@@H](CCCNC(=N)N)C(=O)N[C@@H]([C@@H](C)CC)C(=O)O[C@H]1C)[C@@H](C)CC [Compound 8d] ([Mpa](X1)IS[dT]ARI; ester 4-C)
RP-HPLC column retention time tR [2]: 23.21 min
Hydrophobicity relative to lipobactin 3 as judged by RP-HPLC retention time [2]: more hydrophobic than 3
Δt, retention time difference to lipobactin 3 [2]: +2.8 min
MIC, S. aureus ATCC 29213 ([4]; ATCC 29213, 24 h): > 128 µM

CCCCCCCCCCCCCCCC(=O)OCCSCCC(=O)N[C@H](C(=O)N[C@@H](CO)C(=O)N[C@H]1C(=O)N[C@@H](C)C(=O)N[C@@H](CCCNC(=N)N)C(=O)N[C@@H]([C@@H](C)CC)C(=O)O[C@H]1C)[C@@H](C)CC [Compound 8e] ([Mpa](Ethyl(2-palmitoyloxy))IS[dT]ARI; ester 4-C)
RP-HPLC column retention time tR [2]: 27.98 min
Hydrophobicity relative to lipobactin 3 as judged by RP-HPLC retention time [2]: more hydrophobic than 3
Δt, retention time difference to lipobactin 3 [2]: +7.6 min
MIC, S. aureus ATCC 29213 ([4]; ATCC 29213, 24 h): > 128 µM

CC[C@H](C)[C@H](NC(=O)CCSCCOC(=O)c1ccccc1)C(=O)N[C@@H](CO)C(=O)N[C@H]1C(=O)N[C@@H](C)C(=O)N[C@@H](CCCNC(=N)N)C(=O)N[C@@H]([C@@H](C)CC)C(=O)O[C@H]1C [Compound 8f] ([Mpa](Ethyl(2-OBz))IS[dT]ARI; ester 4-C)
RP-HPLC column retention time tR [2]: 15.93 min
Δt, retention time difference to lipobactin 3 [2]: -4.5 min
MIC, S. aureus ATCC 29213 ([4]; non-cation adjusted Mueller Hinton broth, two-fold dilution 128 to 0.0625 µM, ~5 x10^5 CFU/ml, 37 °C with shaking, 24 h, lowest concentration at which growth did not occur): > 128 µM

L-Arg^10-teixobactin [Compound 2]
MIC (S. epidermidis) [1]: 1 µg/mL
MIC (MRSA) [5, 6]: 2 µg/mL
MIC values across a number of Gram-positive bacterial species ([3]; Zong et al., 2018): 1 to 4 µg/mL
MIC across a range of Gram-positive bacterial species [3]: 1 to 4 µg/mL

teixobactin [Compound 1]
MIC (MRSA) [5, 6]: 0.25 µg/mL
MIC (MRSA) ([5]; ref Ling et al., 2015): 0.25 µg/mL
